Entries after “also recorded” stand apart in the source; their conditions may differ. Like-named read-outs stand apart in the source and are kept apart here.
How the values were obtained:
[1] = test system: 131 targets along with 57 CNS- and abuse potential-specific targets; assay: In vitro pharmacology profile on target panels; conditions: 30 μM
Method: The in vitro pharmacology profile of RO6868847 was evaluated at concentration of 30 μM on panels including 131 targets along with 57 CNS- and abuse potential-specific targets.

[2] = test system: 78 additional receptors and ion channels; assay: Radioligand binding assays on additional receptors and ion channels
[3] = biological target: T1, CB2 receptor on B-cells (Homo sapiens, UniProt P34972); assay: CB2 receptor target engagement on B-cells in blood of participants of Study BP40387; assay type: in vivo
T1 construct: B cells show a low but robust surface expression of CB2; endogenous in cells; host or cells: B cells in human whole blood (healthy participants, diabetic patients)
T1 sequence (P34972 whole entry): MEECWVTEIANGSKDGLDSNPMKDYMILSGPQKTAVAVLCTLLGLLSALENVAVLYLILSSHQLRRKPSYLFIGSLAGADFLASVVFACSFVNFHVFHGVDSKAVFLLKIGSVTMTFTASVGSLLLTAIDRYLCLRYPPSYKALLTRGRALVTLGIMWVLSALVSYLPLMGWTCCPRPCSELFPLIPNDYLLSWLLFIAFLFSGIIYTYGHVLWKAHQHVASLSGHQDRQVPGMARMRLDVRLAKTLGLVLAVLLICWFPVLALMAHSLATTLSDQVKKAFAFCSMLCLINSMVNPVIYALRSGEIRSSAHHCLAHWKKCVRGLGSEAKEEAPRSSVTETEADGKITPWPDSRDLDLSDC
Method: In the Phase I single ascending dose (SAD) and multiple ascending dose (MAD) study (BP40387), CB2R-TE was measured in blood from healthy participants that received single and multiple 0.75-300 mg doses of RO6868847. Based on clinical RO6868847 pharmacokinetics (PK) and pharmacodynamics (PD; measured by CB2R-TE) data and accounting for the difference between healthy and diabetics subjects, the lower end of the 0.75 mg to 300 mg-dose range is expected to achieve approximately up to half-maximum CB2R-TE, whereas the higher end of that dose range is predicted to achieve maximum CB2R-TE.
In example 2, target engagement of RO6868847 was assessed on circulating B-cells from whole blood samples utilizing a newly developed exploratory flow cytometry assay to monitor RO6868847-induced CB2 receptor internalization on B-cells. […] Upon treatment discontinuation CB2 receptor surface expression returned to baseline approximately within 1 week. Target engagement appeared to reach a plateau at doses of 100 mg RO6868847 with only marginal increases at higher doses of RO6868847. In example 2, pro-inflammatory cytokine production was induced by ex vivo stimulation with LPS in freshly obtained whole blood samples, to measure downstream markers of RO6868847-mediated CB2 receptor internalization and explore its pharmacological profile. Serum levels of TNF-α, G-CSF, IL-1β, and […], of participants in Study BP40387 were assessed to investigate the changes of these cytokines in the presence of repeated dose administration of up to 300 mg RO6868847 once-daily for 14 days. […] It should be noted that the IL1-β analysis was negatively affected by a substantial proportion of baseline data, not being reportable (see FIG. 8), especially at the highest tested doses of 300 mg of RO6868847. Substantial variability in these measurements was observed. However, this was expected and no dedicated predefined statistical analysis was performed since cohort sizes were small for this exploratory assessment.

[4] = biological target: T2, human CB2 (Homo sapiens, UniProt P34972); assay: Radioligand binding to CB2, CHO cells expressing recombinant CB2
T2 construct: expressed in transfected cells; host or cells: CHO cells
T2 sequence (P34972 whole entry): as above

[5] = Study BP40387 Part 1 (SAD) pharmacokinetics, healthy participants; assay type: in vivo, human; conditions: for Tmax / half-life / AUC / Cmax: both sexes, human, plasma
Method: In Part 1 (SAD) of Study BP40387, in the fasted state, RO6868847 was overall rapidly absorbed; however, the Tmax appeared to shift with increasing dose. Individual Tmax ranged between 1 to 6 hours at 100 mg and 300 mg RO6868847.

[6] = test system: LPS-induced G-CSF, IFNγ, IL1β and TNFα levels in whole blood; assay: In vitro LPS whole blood challenge assay; assay type: cell-based, human
Method: In order to explore any putative anti-inflammatory pharmacodynamic effect mediated by the CB2 agonist RO6868847 in a potentially clinically relevant human sample, an ex vivo whole blood lipopolysacharid (LPS) challenge assay was performed. Sodium heparin whole blood samples from healthy participants (n=8) were incubated in vitro for 1 hour at 37° C. with eight increasing concentrations of RO6868847 (0-30 μM) and exposed to LPS (100 ng/ml). After 18 h at 37° C. supernatants were analyzed for alterations in a range of chemokines and cytokines using Luminex-bead based multiplex ELISAs.
In addition, this in vitro LPS whole blood challenge assay was also used in samples from diabetic (Type I and Type II) and matched healthy participants (table 6). In order to explore whether the exposure (0-30 μM)-response relationship of RO6868847 and the respective alterations in cytokine levels may be changed by any chronic inflammatory conditions in diabetes (DM) and/or in elderly healthy participants (HP), who are anticipated to be the study population of the Phase II proof of concept Study.

[7] = set-up: species or system human; conditions: in vivo
Description: In Study BP40387, in Part 1, 11 participants (24.4%), Part 2, 1 participant (12.5%), Part 3, 16 participants (40%), Part 4, 12 participants (70.6%) and Part 5, 2 participants (11.1%), had reported at least 1 AE (see Table 22). One participant (5.9%) in Part 4 of the study was withdrawn by the investigator because of AEs. The AEs reported in more than 2 participants in Part 1 was medical device site erythema (6 participants in each PT) and vascular procedure complication (2 participants in each PT), in Part 3 was medical device site erythema (5 participants in each PT), constipation (3 participants in each PT) medical device site papule, medical device site pruritus, vascular procedure complication, headache (each 2 participants), and in Part 4 constipation (2 participants in each PT). […] The event was considered to be related to vicasinabin by the investigator and resolved without sequelae within one week after treatment discontinuation.

[8] = single oral 0.75 mg, fasted, geo mean
[9] = single oral 3.0 mg, fasted, geo mean
[10] = single oral 10 mg, fasted, geo mean
[11] = single oral 30 mg, fasted, geo mean
[12] = single oral 100 mg, fasted, geo mean
[13] = single oral 300 mg, fasted, geo mean
[14] = diabetic patients and matched healthy participants

Cn1nnnc1Cn1nnc2c(N3CC[C@H](O)C3)nc(C(C)(C)C)nc21 [RO6868847, (3S)-1-[5-tert-butyl-3-[(1-methyltetrazol-5-yl)methyl]triazolo[4,5-d]pyrimidin-7-yl]pyrrolidin-3-ol]
selectivity for CB2 in panels [1]: high selectivity for CB2 in all the panels | selectivity for CB2 [2]: excellent selectivity for CB2 | time for CB2 receptor surface expression to return to baseline ([3]; after treatment discontinuation): ≤ 1 week | dose at which target engagement reaches a plateau ([3]; multiple dose): 100 mg | CB2 receptor target engagement on B-cells in blood ([3]; single and multiple oral doses up to 300 mg): reversible, dose-dependent and sustained; also recorded: dose-dependent, long-lasting, but reversible | IC50 [4]: 0.117 ± 0.0263 µM | Ki [4]: 0.0513 µM | Tmax ([5]; oral, Study BP40387, fasted conditions, across doses, read-out: median Tmax): 1 to 4 h | Tmax ([5]; oral, single dose 100 mg and 300 mg, fasted, read-out: Individual Tmax): 1 to 6 h | half-life ([5]; oral, single dose, range across doses, read-out: apparent terminal elimination half-life): 6.95 to 18.5 h | Tmax ([5]; po, 0.75 mg, single oral 0.75 mg, fasted, median, read-out: Tmax): 1 h | Tmax ([5]; po, 3 mg, single oral 3.0 mg, fasted, median, read-out: Tmax): 1 h | Tmax ([5]; po, 10 mg, single oral 10 mg, fasted, median, read-out: Tmax): 1.75 h | Tmax ([5]; po, 30 mg, single oral 30 mg, fasted, median, read-out: Tmax): 1.5 h | Tmax ([5]; po, 100 mg, single oral 100 mg, fasted, median, read-out: Tmax): 1.75 h | Tmax ([5]; po, 300 mg, single oral 300 mg, fasted, median, read-out: Tmax): 3 h | AUC [5, 8]: 112 ng·h/mL | Cmax [5, 8]: 9.92 ng/mL | half-life ([5]; single oral 0.75 mg, fasted, geo mean, read-out: t1/2 (converted)): 6.89 h | AUC [5, 9]: 435 ng·h/mL | Cmax [5, 9]: 40 ng/mL | half-life ([5]; single oral 3.0 mg, fasted, geo mean, read-out: t1/2 (converted)): 7.99 h | AUC [5, 10]: 972 ng·h/mL | Cmax [5, 10]: 111 ng/mL | half-life ([5]; single oral 10 mg, fasted, geo mean, read-out: t1/2 (converted)): 6.95 h | AUC [5, 11]: 3530 ng·h/mL | Cmax [5, 11]: 355 ng/mL | half-life ([5]; single oral 30 mg, fasted, geo mean, read-out: t1/2 (converted)): 6.97 h | AUC [5, 12]: 12500 ng·h/mL | Cmax [5, 12]: 1120 ng/mL | half-life ([5]; single oral 100 mg, fasted, geo mean, read-out: t1/2 (converted)): 14.6 h | AUC [5, 13]: 31400 ng·h/mL | Cmax [5, 13]: 2500 ng/mL | half-life ([5]; single oral 300 mg, fasted, geo mean, read-out: t1/2 (converted)): 18.5 h | dose-proportionality of Cmax and AUC ([5]; doses beyond 100 mg): slightly less than dose-proportional | dose-proportionality of Cmax and AUC ([5]; up to 100 mg): no pronounced deviations from dose-proportionality; also recorded: approximately dose-proportionally | IC50 ([6]; Homo sapiens, DM, 3/9, read-out: IC50 (IL-1β)/μM): 29.4 ± 24.1 µM | IC50 ([6]; Homo sapiens, DM, 7/9, read-out: IC50 (IFNγ)/μM): 6.91 ± 2.29 µM | IC50 ([6]; Homo sapiens, HV, 3/8, read-out: IC50 (TNFα)/μM): 7 ± 4.61 µM | IC50 ([6]; Homo sapiens, HV, 5/8, read-out: IC50 (IL-1β)/μM): 5.02 ± 4.58 µM | IC50 ([6]; Homo sapiens, HV, 6/8, read-out: IC50 (IFNγ)/μM): 10.9 ± 8.9 µM | IC50 ([6]; Homo sapiens, Matched HVs, 4/8, read-out: IC50 (IFNγ)/μM): 12.4 ± 4.19 µM | EC50 ([6]; Homo sapiens, HV, curves fitted 5/8): 7.97 ± 6.71 µM | G-CSF and TNFα levels post LPS [6, 14]: an overall drug response in the explored exposure range could not be concluded | IFNγ level post LPS [6, 14]: dose-dependent attenuation of IFNγ | chemokine and cytokine levels post LPS stimulation ([6]; healthy participants n=8, 0-30 μM, LPS 100 ng/ml, 18 h): decrease of IFNγ, IL1β, TNFα and elevation of G-CSF | participants withdrawn because of AEs ([7]; both, human, 14 days): 5.9% | clinical laboratory parameters, ECGs, vital signs, C-SSRS, VAS, TBNK assay, neurological examinations [7]: No specific concerns
